# US20250144067A1, “PERSONALIZED STARVATION THERAPY FOR CANCER” (Faeth Therapeutics, Inc., priority 2021, published 2025)
# Counter-ions that a name gives are not always drawn. Like-named read-outs stand apart in the source and are kept apart here. Peptide text beside a SMILES is read from it.
# Key:
# [1] = tested on: NCI-H292 lung cancer cells; experiment: FDA drug screening, complete media vs cholesterol-free media without statin (TABLE 1); assay type: cell-based, human
# [2] = tested on: NCI-H292 lung cancer cells; experiment: FDA drug screening, complete media vs cholesterol-free media with simvastatin (TABLE 2); assay type: cell-based, human
# [3] = Complete minus Cholesterol-free, >0 enhanced anti-cancer activity, about 0 neutral, <0 antagonist
# [4] = NCI-H292 cells, cholesterol-free media without statin, FDA drug library screen
# [5] = NCI-H292 cells, complete media, FDA drug library screen
# [6] = NCI-H292 cells, FDA library drug in cholesterol-free media with simvastatin 0.04 μM
# [7] = NCI-H292 cells, FDA library drug in complete media
# [8] = complete media vs cholesterol-free media + simvastatin (0.04 μM), >0 enhanced anti-cancer activity, about 0 neutral, <0 antagonist
# [9] = complete vs cholesterol-free media, >0 enhanced anti-cancer activity, about 0 neutral, <0 antagonist
# [10] = NCI-H292 cells, FDA drug library screen, cholesterol-free media with simvastatin 0.04 μM
# [11] = NCI-H292 cells, FDA drug library screen, complete media
# [12] = complete media minus cholesterol-free media + simvastatin, >0 enhanced anti-cancer activity, about 0 neutral, <0 antagonist
# [13] = NCI-H292 cells, cholesterol-free media without statin
# [14] = complete vs cholesterol-free media, greater than 0 enhanced anti-cancer activity, about 0 neutral, below 0 antagonists
# [15] = NCI-H292 cells, cholesterol-free media with simvastatin 0.04 μM, cell growth value in FDA drug screen
# [16] = Complete minus Cholesterol-free, […]
# [17] = NCI-H292 cells in cholesterol-free media without statin
# [18] = NCI-H292 cells in complete media
# [19] = complete media minus cholesterol-free media + simvastatin, […]
# [20] = NCI-H292 cells, complete media, cell growth value in FDA drug screen
# [21] = NCI-H292 cells, FDA drug library screen, cholesterol-free media without statin
# [22] = NCI-H292 cells, cholesterol-free media with simvastatin 0.04 μM, FDA drug library screen (TABLE 2)
# [23] = NCI-H292 cells, complete media, FDA drug library screen (TABLE 2)
# [24] = NCI-H292 cells, drug in cholesterol-free media with simvastatin 0.04 μM
# [25] = NCI-H292 cells, drug in complete media
# [26] = Complete minus Cholesterol-free, greater than 0 enhanced anti-cancer activity, about 0 neutral, below 0 antagonist
# [27] = complete media minus cholesterol-free media + simvastatin (0.04 μM), >0 enhanced anti-cancer activity, about 0 neutral, <0 antagonist
molecule,measurement,setting,value
COC(=O)N[C@H](C(=O)N1CCC[C@H]1c1nc(-c2ccc(-c3ccc(-c4c[nH]c([C@@H]5CCCN5C(=O)[C@@H](NC(=O)OC)C(C)C)n4)cc3)cc2)c[nH]1)C(C)C [Daclatasvir (dihydrochloride)],Difference,[1]; [3],0.02
same,Cholesterol-free,[1]; [4],1.025
same,Complete,[1]; [5],1.046
same,Cholesterol-free media + simvastatin (0.04 μM),[2]; [6],1.149
same,Complete Media,[2]; [7],0.7215
same,Difference,[2]; [8],−0.43
C[N+](C)(C)CCOP(=O)(O)OP(=O)([O-])OC[C@H]1O[C@@H](n2ccc(N)nc2=O)[C@H](O)[C@@H]1O [Citicoline],Cholesterol-free,[1]; [4],0.7726
same,Complete,[1]; [5],1.062
same,Difference,[1]; [9],0.29
same,Cholesterol-free media + simvastatin (0.04 μM),[2]; [10],0.6677
same,Complete Media,[2]; [11],1.557
same,Difference,[2]; [12],0.89
COC(=O)C1=C(C)NC(C)=C(C(=O)OC2CCCN(Cc3ccccc3)C2)C1c1cccc([N+](=O)[O-])c1 (stereo not shown) [Benidipine (hydrochloride)],Cholesterol-free,[1]; [13],0.9476
same,Complete,"[1]; NCI-H292 cells, complete media",0.5889
same,Difference,[1]; [14],−0.36
same,Cholesterol-free media + simvastatin (0.04 μM),[2]; [15],1.054
same,Difference,[2]; [12],0.11
CCOC(=O)/C=C(C)/C=C/C=C(C)/C=C/c1c(C)cc(OC)c(C)c1C [Etretinate],Difference,[1]; [16],−0.71
same,Cholesterol-free,[1]; [17],1.459
same,Complete,[1]; [18],0.7469
same,Cholesterol-free media + simvastatin (0.04 μM),[2]; [10],0.824
same,Complete Media,[2]; [11],1.055
same,Difference,[2]; [19],0.23
CC(C)C(=O)c1c(C(C)C)nn2ccccc12 [Ibudilast],Difference,[1]; [3],0.04
same,Cholesterol-free,[1]; [4],1.126
same,Complete,[1]; [5],1.165
same,Cholesterol-free media + simvastatin (0.04 μM),[2]; [15],1.245
same,Complete Media,[2]; [20],1.273
same,Difference,[2]; [12],0.03
O=C1Cc2cc(CCN3CCN(c4nsc5ccccc45)CC3)c(Cl)cc2N1 [Ziprasidone (hydrochloride monohydrate)],Cholesterol-free,[1]; [4],0.5848
same,Complete,[1]; [5],0.8552
same,Difference,[1]; [9],0.27
same,Cholesterol-free media + simvastatin (0.04 μM),[2]; [15],0.5734
same,Complete Media,[2]; [20],0.6228
same,Difference,[2]; [12],0.05
Cc1c(C(=O)Nc2ccc(S(C)(=O)=O)cc2)cn(CCO)c1-c1ccccc1C(F)(F)F [Esaxerenone],Difference,[1]; [16],−0.14
same,Cholesterol-free,[1]; [21],1.29
same,Cholesterol-free media + simvastatin (0.04 μM),[2]; [22],0.9763
same,Complete Media,[2]; [23],0.9118
same,Difference,"[2]; complete media minus cholesterol-free media + simvastatin (0.04 μM), […]",−0.06
O=C1NCC2(CCN(CCc3ccccc3)CC2)O1 [Fenspiride (Hydrochloride)],Cholesterol-free,[1]; [4],0.597
same,Complete,[1]; [5],0.752
same,Difference,[1]; [9],0.15
same,Cholesterol-free media + simvastatin (0.04 μM),[2]; [24],1.105
same,Complete Media,[2]; [25],0.9138
same,Difference,[2]; [8],−0.19
Cc1cc(NS(=O)(=O)c2ccc(N)cc2)nc(C)n1 [Sulfisomidin],Difference,[1]; [16],−0.21
same,Cholesterol-free,[1]; [13],1.055
same,Complete,"[1]; NCI-H292 cells, complete media",0.8471
same,Cholesterol-free media + simvastatin (0.04 μM),[2]; [6],1.147
same,Complete Media,[2]; [7],0.7862
same,Difference,"[2]; complete media vs cholesterol-free media + simvastatin (0.04 μM), […]",−0.36
CC(COc1ccccc1)NC(C)C(O)c1ccc(O)cc1 (stereo not shown) [Isoxsuprine hydrochloride],Cholesterol-free,[1]; [13],1.314
same,Complete,"[1]; NCI-H292 cells, complete media",0.939
same,Difference,[1]; [14],−0.38
same,Cholesterol-free media + simvastatin (0.04 μM),[2]; [24],0.8873
same,Complete Media,[2]; [25],0.6774
same,Difference,[2]; [8],−0.21
Cc1oncc1C(=O)Nc1ccc(C(F)(F)F)cc1 [Leflunomide],Difference,[1]; [26],−0.16
same,Cholesterol-free,[1]; [21],0.8738
same,Complete,[1]; [11],0.714
same,Cholesterol-free media + simvastatin (0.04 μM),[2]; [22],0.9978
same,Complete Media,[2]; [23],0.949
same,Difference,[2]; [27],−0.05
CCN1CCN(Cc2ccc(Nc3ncc(F)c(-c4cc(F)c5nc(C)n(C(C)C)c5c4)n3)nc2)CC1 [Abemaciclib],Cholesterol-free,[1]; [4],0.7212
same,Complete,[1]; [5],0.8498
same,Difference,[1]; [9],0.13
same,Cholesterol-free media + simvastatin (0.04 μM),[2]; [6],1.011
same,Complete Media,[2]; [7],0.6686
same,Difference,[2]; [8],−0.34
COC(=O)[C@H](Cc1ccccc1)NC(=O)[C@@H](N)CC(=O)O [Aspartame] (HELM PEPTIDE1{D.F.[CO[*:1]]}$$$$V2.0),Difference,[1]; [3],−0.06
same,Cholesterol-free,[1]; [4],1.044
same,Complete,[1]; [5],0.9887
same,Cholesterol-free media + simvastatin (0.04 μM),[2]; [24],1.165
same,Complete Media,[2]; [25],0.9998
same,Difference,[2]; [8],−0.17
Clc1cccc(Cl)c1N=C1NCCN1 [Clonidine],Difference,"[1]; Complete minus Cholesterol-free, greater than 0 enhanced anti-cancer activity, about 0 neutral, below 0 antagonists",−0.63
same,Cholesterol-free,[1]; [17],1.46
same,Complete,[1]; [18],0.8249
same,Cholesterol-free media + simvastatin (0.04 μM),[2]; [6],1.26
same,Complete Media,[2]; [7],0.9157
same,Difference,[2]; [8],−0.34
CO[C@H]1O[C@@H]2O[C@@]3(C)CC[C@H]4[C@H](C)CC[C@@H]([C@H]1C)[C@@]24OO3 [Artemether],Difference,[1]; [3],−0.26
same,Cholesterol-free,[1]; [13],1.059
same,Complete,"[1]; NCI-H292 cells, complete media",0.7961
same,Cholesterol-free media + simvastatin (0.04 μM),[2]; [10],0.6524
same,Complete Media,[2]; [11],0.841
same,Difference,[2]; [12],0.19
O=C(Nc1c(Cl)cncc1Cl)c1ccc(OC(F)F)c(OCC2CC2)c1 [Roflumilast],Difference,[1]; [3],−0.06
same,Cholesterol-free,[1]; [4],0.9495
same,Complete,[1]; [5],0.8928
same,Cholesterol-free media + simvastatin (0.04 μM),[2]; [6],1.607
same,Complete Media,[2]; [7],0.8972
same,Difference,[2]; [8],−0.71
C=C[C@]1(C)C[C@@H](OC(=O)CS[C@@H]2C[C@H]3CC[C@@H](C2)N3C)[C@]2(C)[C@H](C)CC[C@]3(CCC(=O)[C@H]32)[C@@H](C)[C@@H]1O [Retapamulin],Difference,[1]; [26],−0.18
same,Cholesterol-free,[1]; [21],1.002
same,Complete,[1]; [11],0.8221
same,Cholesterol-free media + simvastatin (0.04 μM),[2]; [22],1.667
same,Complete Media,[2]; [23],1.638
same,Difference,[2]; [27],−0.03
OC(c1ccccc1)(c1ccccc1)C12CC[N+](CCOCc3ccccc3)(CC1)CC2.[Br-] [Umeclidinium (bromide)],Cholesterol-free,[1],0.5848
same,Complete,[1],0.7554
same,Difference,[1],0.17
same,Cholesterol-free media + simvastatin (0.04 μM),[2],1.336
same,Complete Media,[2],0.9344
same,Difference,[2],−0.40
c1cnc(N2CCN(Cc3ccc4c(c3)OCO4)CC2)nc1 [Piribedil],Cholesterol-free,[1]; [4],0.8521
same,Complete,[1]; [5],1.367
same,Difference,[1]; [9],0.51
same,Cholesterol-free media + simvastatin (0.04 μM),[2]; [24],1.189
same,Complete Media,[2]; [25],0.9878
same,Difference,[2]; [8],−0.20
Enasidenib (mesylate),Difference,[1]; [16],−0.61
same,Cholesterol-free,[1]; [17],1.538
same,Complete,[1]; [18],0.9281
same,Cholesterol-free media + simvastatin (0.04 μM),"[2]; NCI-H292 cells, cholesterol-free media with simvastatin 0.04 μM, […]",1.526
same,Complete Media,"[2]; NCI-H292 cells, complete media, […]",1.616
same,Difference,[2]; [19],0.09
C[C@@H](O)[C@H]1C(=O)N2C(C(=O)[O-])=C(SC3Cn4cnc[n+]4C3)[C@H](C)[C@H]12 (stereo partly shown) [Biapenem],Difference,[1]; [26],−0.11
same,Cholesterol-free,[1]; [21],0.9795
same,Complete,[1]; [11],0.8733
same,Cholesterol-free media + simvastatin (0.04 μM),[2]; [10],1.249
same,Complete Media,[2]; [11],1.117
same,Difference,[2]; [8],−0.13
Clc1ccc(CCCOCCCN2CCCCC2)cc1 [Pitolisant (hydrochloride)],Cholesterol-free,[1]; [4],0.9791
same,Complete,[1]; [5],1.232
same,Difference,[1]; [9],0.25
same,Cholesterol-free media + simvastatin (0.04 μM),[2]; [10],0.442
same,Complete Media,[2]; [11],1.031
same,Difference,[2]; [12],0.59
